Legend:
[1] = system: PGE2-induced thermal hypersensitivity; assay: Prostaglandin E2-induced thermal hypersensitivity (warm-water tail withdrawal); format: in vivo, Spraque-Dawley rats; conditions: rat, 10 mg/kg p.o., single dose; assessed 30 min after PGE2 injection
Procedure: Individually housed Spraque-Dawley rats had free access to rat chow and water. A 12-h light/12-h dark cycle was in effect (lights on from 6:00 am to 6:00 pm). Animal maintenance and research were conducted in accordance with the guidelines provided by the National Institutes of Health Committee on Laboratory Animal Resources. These subjects were used in the tests below.
The terminal 10 cm of the tail (rat) was placed into a thermos bottle containing water warmed to 38, 42, 46, 50 or 54° C. The latency in seconds for the animal to remove the tail from the water was used as a measure of nociception. […]
The ability of the compounds to reverse PGE2-induced thermal hypersensitivity was assessed using a single dose time-course procedure. […] sensitivity was assessed 30 min after PGE2 injection.
Data Analysis—The temperature that produced a half-maximal increase in the tail-withdrawal latency (i.e., T10) was calculated from each temperature-effect curve. The T10 was determined by interpolation from a line drawn between the point above and the point below 10 sec on the temperature-effect curve. […] Reversal of thermal hypersensitivity was defined as a return to baseline of the temperature-effect curve and the T10 value and was calculated according to the following equation: […]

Structure (SMILES): CCOC(=O)c1cccc(OP(=O)(CCN2CCCNc3c2c(=O)c3=O)Oc2cccc(C(=O)OCC)c2)c1 [Example 1, Diethyl 3,3′-[({2-[8,9-dioxo-2,6-diazabicyclo[5.2.0]non-1(7)-en-2-yl]ethyl}phosphoryl)bis(oxy)]dibenzoate]
- reversing PGE2-induced thermal hypersensitivity (% MPE) [1]: 40%
- melting point: 116 to 117 °C

— patent publication US7879826B2, “Derivatives of [2-(8,9-dioxo-2,6-diazabicyclo[5.2.0]non-1(7)-en-2-yl)alkyl]phosphonic acid and methods of making them” (Wyeth LLC, priority 2004, dated 2011)
